In PubChem BioAssay (NCI):
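Results reflect a 48-hour exposure of cells in 96-well plates to compound at five concentrations. Abbreviation: GI50, concentration required for 50% inhibition of growth. The concentration for full growth arrest is given as TGI.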

Tests used:
Test in all cases: NCI tumour cell line growth inhibition, 48 h
[1] = test system: 786-0 renal
[2] = test system: A498 renal
[3] = test system: A549 NSCLC
[4] = test system: ACHN renal
[5] = test system: BT-549 breast
[6] = test system: CAKI-1 renal
[7] = test system: COLO 205 colon
[8] = test system: DU-145 prostate
[9] = test system: EKVX NSCLC
[10] = test system: HCC-2998 colon
[11] = test system: HCT-116 colon
[12] = test system: HCT-15 colon
[13] = test system: HOP-62 NSCLC
[14] = test system: HS 578T breast
[15] = test system: HT29 colon
[16] = test system: IGROV1 ovarian
[17] = test system: K-562 leukemia
[18] = test system: KM12 colon
[19] = test system: LOX IMVI melanoma
[20] = test system: M14 melanoma
[21] = test system: MALME-3M melanoma
[22] = test system: MCF7 breast
[23] = test system: MDA-MB-231 breast
[24] = test system: MDA-MB-435
[25] = test system: MOLT-4 leukemia
[26] = test system: NCI-H226 lung
[27] = test system: NCI-H23 lung
[28] = test system: NCI-H460 lung
[29] = test system: NCI-H522 lung
[30] = test system: NCI/ADR-RES ovarian
[31] = test system: OVCAR-3 ovarian
[32] = test system: OVCAR-4 ovarian
[33] = test system: OVCAR-5 ovarian
[34] = test system: OVCAR-8 ovarian
[35] = test system: PC-3 prostate
[36] = test system: SF-268 CNS
[37] = test system: SF-295 CNS
[38] = test system: SF-539 CNS
[39] = test system: SK-MEL-2 melanoma
[40] = test system: SK-MEL-28 melanoma
[41] = test system: SK-MEL-5 melanoma
[42] = test system: SK-OV-3 ovarian
[43] = test system: SN12C renal
[44] = test system: SNB-19 CNS
[45] = test system: SNB-75 CNS
[46] = test system: SW-620 colon
[47] = test system: T-47D breast
[48] = test system: TK-10 renal
[49] = test system: U251 CNS
[50] = test system: UACC-257 melanoma
[51] = test system: UACC-62 melanoma
[52] = test system: UO-31 renal

## CNC(=O)C(CCc1ccccc1)NC(=O)C(CC(=O)NO)CC(C)C (centres undefined)
[1]
  GI50: > 25 µM
  TGI: > 25 µM
[2]
  GI50: > 25 µM
  TGI: > 25 µM
[3]
  GI50: > 25 µM
  TGI: > 25 µM
[4]
  GI50: > 25 µM
  TGI: > 25 µM
[5]
  GI50: > 25 µM
  TGI: > 25 µM
[6]
  GI50: > 25 µM
  TGI: > 25 µM
[7]
  GI50: > 25 µM
  TGI: > 25 µM
[8]
  GI50: > 25 µM
  TGI: > 25 µM
[9]
  GI50: 8.31 µM
  TGI: > 25 µM
[10]
  GI50: > 25 µM
  TGI: > 25 µM
[11]
  GI50: > 25 µM
  TGI: > 25 µM
[12]
  GI50: > 25 µM
  TGI: > 25 µM
[13]
  GI50: > 25 µM
  TGI: > 25 µM
[14]
  GI50: > 25 µM
  TGI: > 25 µM
[15]
  GI50: > 25 µM
  TGI: > 25 µM
[16]
  GI50: > 25 µM
  TGI: > 25 µM
[17]
  GI50: 19.6 µM
  TGI: > 25 µM
[18]
  GI50: > 25 µM
  TGI: > 25 µM
[19]
  GI50: > 25 µM
  TGI: > 25 µM
[20]
  GI50: > 25 µM
  TGI: > 25 µM
[21]
  GI50: > 25 µM
  TGI: > 25 µM
[22]
  GI50: > 25 µM
  TGI: > 25 µM
[23]
  GI50: > 25 µM
  TGI: > 25 µM
[24]
  GI50: > 25 µM
  TGI: > 25 µM
[25]
  GI50: > 25 µM
  TGI: > 25 µM
[26]
  GI50: > 25 µM
  TGI: > 25 µM
[27]
  GI50: > 25 µM
  TGI: > 25 µM
[28]
  GI50: > 25 µM
  TGI: > 25 µM
[29]
  GI50: > 25 µM
  TGI: > 25 µM
[30]
  GI50: > 25 µM
  TGI: > 25 µM
[31]
  GI50: > 25 µM
  TGI: > 25 µM
[32]
  GI50: > 25 µM
  TGI: > 25 µM
[33]
  GI50: > 25 µM
  TGI: > 25 µM
[34]
  GI50: > 25 µM
  TGI: > 25 µM
[35]
  GI50: > 25 µM
  TGI: > 25 µM
[36]
  GI50: > 25 µM
  TGI: > 25 µM
[37]
  GI50: > 25 µM
  TGI: > 25 µM
[38]
  GI50: > 25 µM
  TGI: > 25 µM
[39]
  GI50: > 25 µM
  TGI: > 25 µM
[40]
  GI50: > 25 µM
  TGI: > 25 µM
[41]
  GI50: > 25 µM
  TGI: > 25 µM
[42]
  GI50: > 25 µM
  TGI: > 25 µM
[43]
  GI50: > 25 µM
  TGI: > 25 µM
[44]
  GI50: > 25 µM
  TGI: > 25 µM
[45]
  GI50: > 25 µM
  TGI: > 25 µM
[46]
  GI50: > 25 µM
  TGI: > 25 µM
[47]
  GI50: > 25 µM
  TGI: > 25 µM
[48]
  GI50: > 25 µM
  TGI: > 25 µM
[49]
  GI50: > 25 µM
  TGI: > 25 µM
[50]
  GI50: > 25 µM
  TGI: > 25 µM
[51]
  GI50: > 25 µM
  TGI: > 25 µM
[52]
  GI50: > 25 µM
  TGI: > 25 µM
